Test results: patent US10189841B2, “Purinones as ubiquitin-specific protease 1 inhibitors” (Forma Therapeutics, Inc., priority 2015, dated 2019)

target: USP1 (construct USP1 (I-785, GG670, 671AA)/UAF1 (I-677)-Flag) (Homo sapiens (Human), UniProt O94782, G670A/G671A); experiment: Ubiquitin-Rhodamine 110 assay for USP1 activity; format: biochemical; conditions: USP1/UAF1 25 pM, Ub-Rh110 25 nM, 30 min preincubation
Summary of the method: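 Two formats with the USP1/UAF1 complex and 25 nM ubiquitin-rhodamine 110 in pH 8.0 Tris buffer with calcium, glutathione and detergent. Single-point screening used 10 µM, 100 pM enzyme and 45 min. Inhibition was set against no-enzyme and DMSO wells.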

Chain of USP1 (construct USP1 (I-785, GG670, 671AA)/UAF1 (I-677)-Flag) (O94782 whole entry G670A/G671A): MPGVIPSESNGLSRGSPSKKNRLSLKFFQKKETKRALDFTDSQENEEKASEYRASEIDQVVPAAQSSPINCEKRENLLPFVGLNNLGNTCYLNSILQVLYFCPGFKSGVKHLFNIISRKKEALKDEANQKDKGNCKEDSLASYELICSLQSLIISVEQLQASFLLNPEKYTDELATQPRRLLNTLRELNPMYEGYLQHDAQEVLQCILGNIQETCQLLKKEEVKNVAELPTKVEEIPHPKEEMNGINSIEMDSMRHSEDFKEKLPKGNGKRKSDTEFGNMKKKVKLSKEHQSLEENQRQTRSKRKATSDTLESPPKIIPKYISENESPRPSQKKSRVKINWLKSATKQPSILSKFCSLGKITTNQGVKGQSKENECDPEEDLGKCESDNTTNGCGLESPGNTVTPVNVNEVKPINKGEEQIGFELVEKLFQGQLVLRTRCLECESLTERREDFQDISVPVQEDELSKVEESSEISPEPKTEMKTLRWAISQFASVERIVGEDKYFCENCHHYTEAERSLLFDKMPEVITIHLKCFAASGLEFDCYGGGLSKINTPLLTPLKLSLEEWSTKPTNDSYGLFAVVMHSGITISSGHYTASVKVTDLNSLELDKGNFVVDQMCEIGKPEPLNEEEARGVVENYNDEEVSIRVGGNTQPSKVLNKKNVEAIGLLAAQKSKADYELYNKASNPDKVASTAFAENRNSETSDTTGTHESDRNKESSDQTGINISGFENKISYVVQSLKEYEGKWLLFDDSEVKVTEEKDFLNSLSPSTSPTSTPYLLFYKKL
Chain of USP1 (construct USP1 (I-785, GG670, 671AA)/UAF1 (I-677)-Flag) (Q8TAF3 whole entry partner): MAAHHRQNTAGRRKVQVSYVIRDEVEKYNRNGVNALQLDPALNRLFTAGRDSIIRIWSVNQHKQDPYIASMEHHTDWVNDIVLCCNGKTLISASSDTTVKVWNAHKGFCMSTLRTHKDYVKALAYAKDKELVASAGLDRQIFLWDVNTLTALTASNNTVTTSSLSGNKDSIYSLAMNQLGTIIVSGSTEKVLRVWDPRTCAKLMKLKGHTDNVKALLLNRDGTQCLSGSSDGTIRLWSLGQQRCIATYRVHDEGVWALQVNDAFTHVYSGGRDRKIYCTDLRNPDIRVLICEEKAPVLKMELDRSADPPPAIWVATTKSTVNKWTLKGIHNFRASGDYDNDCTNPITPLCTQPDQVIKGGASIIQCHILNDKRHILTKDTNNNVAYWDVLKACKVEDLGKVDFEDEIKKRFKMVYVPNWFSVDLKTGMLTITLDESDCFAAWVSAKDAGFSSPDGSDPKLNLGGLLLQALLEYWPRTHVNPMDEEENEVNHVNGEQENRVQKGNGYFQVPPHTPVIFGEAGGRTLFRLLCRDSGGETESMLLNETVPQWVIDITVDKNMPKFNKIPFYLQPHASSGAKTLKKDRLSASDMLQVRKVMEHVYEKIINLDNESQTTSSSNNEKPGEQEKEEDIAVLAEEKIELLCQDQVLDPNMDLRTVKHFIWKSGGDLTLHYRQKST

CC(C)c1ccccc1-c1ncc2c(n1)n(Cc1cccc(OCC3CCOC3)c1)c(=O)n2C (stereo not shown) [Compound I-240, 2-(2-isopropylphenyl)-7-methyl-9-(3-((tetrahydrofuran-3-yl)methoxy)benzyl)-7,9-dihydro-8H-purin-8-one] and CC(C)c1ccccc1-c1ncc2c(n1)n(Cc1cccc(OCC3CCCN(C)C3)c1)c(=O)n2C (stereo not shown) [Compound I-241, 2-(2-isopropylphenyl)-7-methyl-9-(3-((1-methylpiperidin-3-yl)methoxy)benzyl)-7,9-dihydro-8H-purin-8-one] fall in the same range of IC50: 200 to 2000 nM for the first, 200 to 2000 nM for the second.

First: CC(C)c1ccccc1-c1ncc2c(n1)n(Cc1cccc(OCc3ccccn3)c1)c(=O)n2C [Compound I-242, 2-(2-isopropylphenyl)-7-methyl-9-(3-(pyridin-2-ylmethoxy)benzyl)-7,9-dihydro-8H-purin-8-one]
Second: CC(C)c1ccccc1-c1ncc2c(n1)n(Cc1cccc(OCc3cncn3C)c1)c(=O)n2C [Compound I-243, 2-(2-isopropylphenyl)-7-methyl-9-(3-((1-methyl-1H-imidazol-5-yl)methoxy)benzyl)-7,9-dihydro-8H-purin-8-one]
The IC50 of the first is higher: over 2000 nM for the first, 200 to 2000 nM for the second.

CC(C)c1ccccc1-c1ncc2c(n1)n(Cc1cccc(OCCN(C)C)c1)c(=O)n2C [Compound I-244, 9-(3-(2-(dimethylamino)ethoxy)benzyl)-2-(2-isopropylphenyl)-7-methyl-7,9-dihydro-8H-purin-8-one] and CC(C)c1ccccc1-c1ncc2c(n1)n(Cc1cccc(OCCCN(C)C)c1)c(=O)n2C [Compound I-245, 9-(3-(3-(dimethylamino)propoxy)benzyl)-2-(2-isopropylphenyl)-7-methyl-7,9-dihydro-8H-purin-8-one] cannot be ordered by IC50: over 2000 nM for the first, over 2000 nM for the second.

First: CC(C)c1ccccc1-c1ncc2c(n1)n(Cc1cccc(OC3CCC3)c1)c(=O)n2C [Compound I-246, 9-(3-cyclobutoxybenzyl)-2-(2-isopropylphenyl)-7-methyl-7,9-dihydro-8H-purin-8-one]
Second: CC(C)c1ccccc1-c1ncc2c(n1)n(Cc1ccc(-c3cncn3C)cc1)c(=O)n2C [Compound I-264, 2-(2-isopropylphenyl)-7-methyl-9-(4-(1-methyl-1H-imidazol-5-yl)benzyl)-7,9-dihydro-8H-purin-8-one]
The IC50 of the first is higher: over 2000 nM for the first, 50 to 200 nM for the second. The second is the more potent here.

CC(C)c1ccccc1-c1ncc2[nH]c(=O)n(Cc3ccc(-c4cnccn4)cc3)c2n1 [Compound I-247, 2-(2-isopropylphenyl)-9-(4-(pyrazin-2-yl)benzyl)-7,9-dihydro-8H-purin-8-one] and CC(C)c1ccccc1-c1ncc2[nH]c(=O)n(Cc3ccc(-c4ncccn4)cc3)c2n1 [Compound I-255, 2-(2-isopropylphenyl)-9-(4-(pyrimidin-2-yl)benzyl)-7,9-dihydro-8H-purin-8-one] fall in the same range of IC50: 50 to 200 nM for the first, 50 to 200 nM for the second.

CC(C)c1ccccc1-c1ncc2[nH]c(=O)n(Cc3ccc(-c4cccc(CCN(C)C)c4)cc3)c2n1 [Compound I-248, 9-((3′-(2-(dimethylamino)ethyl)-[1,1′-biphenyl]-4-yl)methyl)-2-(2-isopropylphenyl)-7,9-dihydro-8H-purin-8-one] and CC(C)c1ccccc1-c1ncc2[nH]c(=O)n(Cc3ccc(-c4ccc(CCN(C)C)cc4)cc3)c2n1 [Compound I-249, 9-((4′-(2-(dimethylamino)ethyl)-[1,1′-biphenyl]-4-yl)methyl)-2-(2-isopropylphenyl)-7,9-dihydro-8H-purin-8-one] fall in the same range of IC50: 200 to 2000 nM for the first, 200 to 2000 nM for the second.

First: CC(C)c1ccccc1-c1ncc2[nH]c(=O)n(Cc3ccc(-c4cc(N5CCOCC5)ncn4)cc3)c2n1 [Compound I-250, 2-(2-isopropylphenyl)-9-(4-(6-morpholinopyrimidin-4-yl)benzyl)-7,9-dihydro-8H-purin-8-one]
Second: CC(C)c1ccccc1-c1ncc2c(n1)n(Cc1ccc(-c3cc(N4CCOCC4)ncn3)cc1)c(=O)n2C [Compound I-263, 2-(2-isopropylphenyl)-7-methyl-9-(4-(6-morpholinopyrimidin-4-yl)benzyl)-7,9-dihydro-8H-purin-8-one]
The IC50 of the first is lower: 50 to 200 nM for the first, 200 to 2000 nM for the second.

Compared with CC(C)c1ccccc1-c1ncc2[nH]c(=O)n(Cc3ccc(-c4cncn4C)cc3)c2n1 [Compound I-251, 2-(2-isopropylphenyl)-9-(4-(1-methyl-1H-imidazol-5-yl)benzyl)-7,9-dihydro-8H-purin-8-one], CC(C)c1ccccc1-c1ncc2[nH]c(=O)n(Cc3ccc(-c4ccnn4C)cc3)c2n1 [Compound I-256, 2-(2-isopropylphenyl)-9-(4-(1-methyl-1H-pyrazol-5-yl)benzyl)-7,9-dihydro-8H-purin-8-one] is lower in IC50: 200 to 2000 nM for the first, under 50 nM for the second.

First: Cc1c(-c2ccc(Cn3c(=O)[nH]c4cnc(-c5ccccc5C(C)C)nc43)cc2)cnn1C [Compound I-252, 9-(4-(1,5-dimethyl-1H-pyrazol-4-yl)benzyl)-2-(2-isopropylphenyl)-7,9-dihydro-8H-purin-8-one]
Second: CC(C)c1ccccc1-c1ncc2[nH]c(=O)n(Cc3ccc(-c4cnn(C)c4CC(=O)O)cc3)c2n1 [Compound I-254, 2-(4-(4-((2-(2-isopropylphenyl)-8-oxo-7,8-dihydro-9H-purin-9-yl)methyl)phenyl)-1-methyl-1H-pyrazol-5-yl)acetic acid]
The IC50 of the first is lower: 50 to 200 nM for the first, over 2000 nM for the second.

First: Cc1noc(C)c1-c1ccc(Cn2c(=O)[nH]c3cnc(-c4ccccc4C(C)C)nc32)cc1 [Compound I-253, 9-(4-(3,5-dimethylisoxazol-4-yl)benzyl)-2-(2-isopropylphenyl)-7,9-dihydro-8H-purin-8-one]
Second: CC(C)c1ccccc1-c1ncc2[nH]c(=O)n(Cc3ccc(-c4cn(C)cn4)cc3)c2n1 [Compound I-273, 2-(2-isopropylphenyl)-9-(4-(1-methyl-1H-imidazol-4-yl)benzyl)-7,9-dihydro-8H-purin-8-one]
The IC50 of the first is higher: 200 to 2000 nM for the first, under 50 nM for the second.

CC(C)c1ccccc1-c1ncc2c(n1)n(Cc1ccc(-c3nccn3C)cc1)c(=O)n2C [Compound I-257, 2-(2-isopropylphenyl)-7-methyl-9-(4-(1-methyl-1H-imidazol-2-yl)benzyl)-7,9-dihydro-8H-purin-8-one] and Cc1cn(C)c(-c2ccc(Cn3c(=O)n(C)c4cnc(-c5ccccc5C(C)C)nc43)cc2)n1 [Compound I-258, 9-(4-(1,4-dimethyl-1H-imidazol-2-yl)benzyl)-2-(2-isopropylphenyl)-7-methyl-7,9-dihydro-8H-purin-8-one] cannot be ordered by IC50: under 50 nM for the first, under 50 nM for the second.

Compared with CC(C)c1ccccc1-c1ncc2c(n1)n(Cc1ccc(-c3ccccc3OCCN(C)C)cc1)c(=O)n2C [Compound I-259, 9-((2′-(2-(dimethylamino)ethoxy)-[1,1′-biphenyl]-4-yl)methyl)-2-(2-isopropylphenyl)-7-methyl-7,9-dihydro-8H-purin-8-one], CC(C)c1ccccc1-c1ncc2c(n1)n(Cc1ccc(-c3cccc(OCCN(C)C)c3)cc1)c(=O)n2C [Compound I-260, 9-((3′-(2-(dimethylamino)ethoxy)-[1,1′-biphenyl]-4-yl)methyl)-2-(2-isopropylphenyl)-7-methyl-7,9-dihydro-8H-purin-8-one] is higher in IC50: under 50 nM for the first, 50 to 200 nM for the second.

CC(C)c1ccccc1-c1ncc2c(n1)n(Cc1ccc(-c3ccc(OCCN(C)C)cc3)cc1)c(=O)n2C [Compound I-261, 9-((4′-(2-(dimethylamino)ethoxy)-[1,1′-biphenyl]-4-yl)methyl)-2-(2-isopropylphenyl)-7-methyl-7,9-dihydro-8H-purin-8-one] and CC(C)c1ccccc1-c1ncc2c(n1)n(Cc1ccc(-c3ccc(CCN(C)C)cc3)cc1)c(=O)n2C [Compound I-262, 9-((4′-(2-(dimethylamino)ethyl)-[1,1′-biphenyl]-4-yl)methyl)-2-(2-isopropylphenyl)-7-methyl-7,9-dihydro-8H-purin-8-one] fall in the same range of IC50: 50 to 200 nM for the first, 50 to 200 nM for the second.

First: CC(C)c1ccccc1-c1ncc2c(n1)n(Cc1ccc(-c3cnn4c3COCC4)cc1)c(=O)n2C [Compound I-265, 9-(4-(6,7-dihydro-4H-pyrazolo[5,1-c][1,4]oxazin-3-yl)benzyl)-2-(2-isopropylphenyl)-7-methyl-7,9-dihydro-8H-purin-8-one]
Second: CC(C)c1ccccc1-c1ncc2c(n1)n(Cc1ccc(-c3cn(C)cn3)cc1)c(=O)n2C [Compound I-271, 2-(2-isopropylphenyl)-7-methyl-9-(4-(1-methyl-1H-imidazol-4-yl)benzyl)-7,9-dihydro-8H-purin-8-one]
The IC50 of the first is higher: 200 to 2000 nM for the first, under 50 nM for the second.

First: CC(C)c1ccccc1-c1ncc2c(n1)n(Cc1ccc(-c3cccc4ncnn34)cc1)c(=O)n2C [Compound I-266, 9-(4-([1,2,4]triazolo[1,5-a]pyridin-5-yl)benzyl)-2-(2-isopropylphenyl)-7-methyl-7,9-dihydro-8H-purin-8-one]
Second: CC(C)c1ccccc1-c1ncc2c(n1)n(Cc1ccc(-c3cccc4nccn34)cc1)c(=O)n2C [Compound I-270, 9-(4-(imidazo[1,2-a]pyridin-5-yl)benzyl)-2-(2-isopropylphenyl)-7-methyl-7,9-dihydro-8H-purin-8-one]
The IC50 of the first is lower: 50 to 200 nM for the first, 200 to 2000 nM for the second. The first is the more potent here.

Compared with CC(C)c1ccccc1-c1ncc2c(n1)n(Cc1ccc(-c3cccc4cnoc34)cc1)c(=O)n2C [Compound I-267, 9-(4-(benzo[d]isoxazol-7-yl)benzyl)-2-(2-isopropylphenyl)-7-methyl-7,9-dihydro-8H-purin-8-one], CC(C)c1ccccc1-c1ncc2c(n1)n(Cc1ccc(-c3cccc4cn[nH]c34)cc1)c(=O)n2C [Compound I-268, 9-(4-(1H-indazol-7-yl)benzyl)-2-(2-isopropylphenyl)-7-methyl-7,9-dihydro-8H-purin-8-one] is lower in IC50: 200 to 2000 nM for the first, 50 to 200 nM for the second.

Compared with CC(C)c1ccccc1-c1ncc2c(n1)n(Cc1ccc(-c3cccn4ccnc34)cc1)c(=O)n2C [Compound I-269, 9-(4-(imidazo[1,2-a]pyridin-8-yl)benzyl)-2-(2-isopropylphenyl)-7-methyl-7,9-dihydro-8H-purin-8-one], CC(C)c1ccccc1-c1ncc2c(n1)n(Cc1ccc(-c3ncn(C)n3)cc1)c(=O)n2C [Compound I-272, 2-(2-isopropylphenyl)-7-methyl-9-(4-(1-methyl-1H-1,2,4-triazol-3-yl)benzyl)-7,9-dihydro-8H-purin-8-one] is higher in IC50: under 50 nM for the first, 50 to 200 nM for the second.
